Laboratory results as given in paper PMC12692713, “Neuroprotective and Antioxidant Properties of Different Novel Steroid-Derived Nitrones and Oximes on Cerebral Ischemia In Vitro” (International Journal of Molecular Sciences, 2025).
Where two headings read alike, the source gives them in different places.

Target: T1, soybean lipoxygenase (LOX) (Glycine max, UniProt P08170)
T1 construct: gene LOX1.1
T1 sequence (P08170 1-839): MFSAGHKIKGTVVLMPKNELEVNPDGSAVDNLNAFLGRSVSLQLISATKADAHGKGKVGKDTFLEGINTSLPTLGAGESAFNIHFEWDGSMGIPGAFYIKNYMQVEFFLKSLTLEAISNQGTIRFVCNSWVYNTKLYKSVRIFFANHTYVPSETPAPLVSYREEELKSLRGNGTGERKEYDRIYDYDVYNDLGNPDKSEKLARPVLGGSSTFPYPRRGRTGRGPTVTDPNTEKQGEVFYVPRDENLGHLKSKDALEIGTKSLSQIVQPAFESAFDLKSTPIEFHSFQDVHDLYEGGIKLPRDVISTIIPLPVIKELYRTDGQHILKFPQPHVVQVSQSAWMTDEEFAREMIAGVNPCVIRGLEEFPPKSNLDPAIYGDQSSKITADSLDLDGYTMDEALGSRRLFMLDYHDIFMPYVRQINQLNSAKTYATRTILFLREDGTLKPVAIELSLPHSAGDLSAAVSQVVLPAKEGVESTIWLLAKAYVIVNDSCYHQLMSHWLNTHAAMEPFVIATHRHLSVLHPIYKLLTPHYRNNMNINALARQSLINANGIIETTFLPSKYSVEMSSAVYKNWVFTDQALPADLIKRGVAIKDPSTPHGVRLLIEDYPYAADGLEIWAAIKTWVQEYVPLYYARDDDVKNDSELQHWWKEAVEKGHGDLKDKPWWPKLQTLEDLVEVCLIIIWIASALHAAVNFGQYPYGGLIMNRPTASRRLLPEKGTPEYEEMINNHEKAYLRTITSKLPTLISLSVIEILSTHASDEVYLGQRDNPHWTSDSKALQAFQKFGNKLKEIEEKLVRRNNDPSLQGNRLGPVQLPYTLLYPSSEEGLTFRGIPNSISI
Assay: UV absorbance at […] nm, conversion of sodium linoleate to 13-hydroperoxylinoleic acid, Tris pH […]
Type: biochemical

C#C[C@]1(O)CC[C@H]2[C@@H]3CCC4=CC(=NO)CC[C@]4(C)[C@H]3CC[C@@]21C (mixture of isomers) [MC2]
IC50: 97 ± 1.5 µM

CC#C[C@]1(O)CC[C@H]2[C@@H]3CCC4=CC(=NO)CCC4=C3[C@@H](c3ccc(N(C)C)cc3)C[C@@]21C [MC4]
IC50 (read-out: LOX Inhibition (% or IC50)): 3.8 ± 0.3 µM

C#C[C@]1(O)CC[C@H]2[C@@H]3CCC4=CC(=[N+](C)[O-])CC[C@]4(C)[C@H]3CC[C@@]21C [MC3]
IC50: 62 ± 0.8 µM
